Where two headings read alike, the source gives them in different places.
System: HSV-1
Experiment: Plaque reduction assay, HSV-1 clinical isolates on Vero cells
Format: cell-based
Conditions: Human alphaherpesvirus 1, Vero
Procedure, shortened: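 Susceptibility of HSV-1 isolates was read as percent plaque reduction versus no-drug control, counted on fixed, crystal-violet-stained sub-confluent Vero cells infected at 75 PFU/well beneath CMC. Intermediate resistance lies between cut-offs ACV <3/>40 μM, PCV <10/>40 μM, CDV <24/>30 μM, FOS <250/>400 μM.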

Nc1nc2c(ncn2COCCO)c(=O)[nH]1 [Aciclovir, acyclovir]
IC50 (read-out: Drug susceptibility Aciclovir (ACV), isolate HPG002, HSV-1 pol E992K (2974G>A), also TK insert (G) nt 430-436, pol A1169T): 3 to 40 µM | IC50 (read-out: Drug susceptibility Aciclovir (ACV), isolate HPG003, HSV-1 TK Y172S (515A>C)): 3 to 40 µM | IC50 (read-out: Drug susceptibility Aciclovir (ACV), isolate HPG005, HSV-1 TK A37V (110C>T)): < 3 µM | IC50 (read-out: Drug susceptibility Aciclovir (ACV), isolate HPG005, HSV-1 TK A192T (574G>A)): < 3 µM | IC50 (read-out: Drug susceptibility Aciclovir (ACV), isolate HPG006, HSV-1 pol G121S (361G>A), also a TK resistance mutation (footnote a)): > 40 µM | IC50 (read-out: Drug susceptibility Aciclovir (ACV), isolate HPG008, HSV-1 TK V204G (611T>G)): 3 to 40 µM | IC50 (read-out: Drug susceptibility Aciclovir (ACV), isolate HPG009, HSV-1 pol E992K (2974G>A), also pol A1169T): < 3 µM | IC50 (read-out: Drug susceptibility Aciclovir (ACV), isolate HPG010, HSV-1 TK Q125* (373C>T)): 3 to 40 µM | IC50 (read-out: Drug susceptibility Aciclovir (ACV), isolate HPG011, HSV-1 TK Q125* (373C>T)): 3 to 40 µM | IC50 (read-out: Drug susceptibility Aciclovir (ACV), isolate HPG012, HSV-1 pol G985E (2954G>A), also TK A93V): > 40 µM | IC50 (read-out: Drug susceptibility Aciclovir (ACV), isolate HPG013, HSV-1 TK M121I (363G>A)): 3 to 40 µM | IC50 (read-out: Drug susceptibility Aciclovir (ACV), isolate HPG013, HSV-1 pol D83A (248A>C), also TK M121I, pol A1169T): 3 to 40 µM | IC50 (read-out: Drug susceptibility Aciclovir (ACV), isolate HPG014, HSV-1 pol A1115T (3343G>A)): < 3 µM | IC50 (read-out: Drug susceptibility Aciclovir (ACV), isolate HPG014, HSV-1 pol R993C (2977C>T)): < 3 µM | IC50 (read-out: Drug susceptibility Aciclovir (ACV), isolate HPG014, HSV-1 pol T54A (160A>G)): < 3 µM | IC50 (read-out: Drug susceptibility Aciclovir (ACV), isolate HPG015, HSV-1 pol 966stop or F965_I966insF (2892_2893insT to 2895_2896insT)): < 3 µM | IC50 (read-out: Drug susceptibility Aciclovir (ACV), isolate HPG016, HSV-1 pol A1169T (3505G>A)): < 3 µM | IC50 (read-out: Drug susceptibility Aciclovir (ACV), isolate HPG018, HSV-1 TK frameshift (881delC to 885delC)): 3 to 40 µM | IC50 (read-out: Drug susceptibility Aciclovir (ACV), isolate HPG018, HSV-1 pol P1199T (3595C>A), also TK deletion (C) nt 881-885, pol A1169T): 3 to 40 µM | IC50 (read-out: Drug susceptibility Aciclovir (ACV), isolate HPG019, HSV-1 pol K750T (2249A>C), also TK deletion (G) nt 430-436, pol A1169T): > 40 µM | IC50 (read-out: Drug susceptibility Aciclovir (ACV), isolate HPG020, HSV-1 pol S911N (2732G>A), also pol A1169T): < 3 µM | IC50 (read-out: Drug susceptibility Aciclovir (ACV), isolate HPG021, HSV-1 pol R681Q (2042G>A), also TK deletion (G) nt 430-436): > 40 µM | IC50 (read-out: Drug susceptibility Aciclovir (ACV), isolate HPG021, HSV-1 pol T839A (2515A>G), also TK deletion (G) nt 430-436): > 40 µM | IC50 (read-out: Drug susceptibility Aciclovir (ACV), isolate HPG025, HSV-1 pol E850Q (2548G>C), also TK R216C): 3 to 40 µM | IC50 (read-out: Drug susceptibility Aciclovir (ACV), isolate HPG026, HSV-1 pol E850Q (2548G>C), also TK R216C, pol A1169T): 3 to 40 µM | IC50 (read-out: Drug susceptibility Aciclovir (ACV), isolate HPG027, HSV-1 TK V204G (611T>G), also pol S914L, A1169AT): > 40 µM | IC50 (read-out: Drug susceptibility Aciclovir (ACV), isolate HPG027, HSV-1 pol S914L (2741C>T), also TK V204G, pol A1169T): > 40 µM | IC50 (read-out: Drug susceptibility Aciclovir (ACV), isolate HPG029, HSV-1 TK Y172S (515A>C)): > 40 µM | IC50 (read-out: Drug susceptibility Aciclovir (ACV), isolate HPG031, HSV-1 pol E1120A (3359A>C), also a TK resistance mutation (footnote e)): 3 to 40 µM | IC50 (read-out: Drug susceptibility Aciclovir (ACV), isolate HPG031, HSV-1 pol G139R (415G>C or 415G>A), also a TK resistance mutation (footnote e)): 3 to 40 µM | IC50 (read-out: Drug susceptibility Aciclovir (ACV), isolate HPG032, HSV-1 TK 183* (437_438insA)): 3 to 40 µM | IC50 (read-out: Drug susceptibility Aciclovir (ACV), isolate HPG033, HSV-1 TK I358L (1072A>C), also TK T287M): 3 to 40 µM | IC50 (read-out: Drug susceptibility Aciclovir (ACV), isolate HPG033, HSV-1 pol N1046T (3137A>C), also TK T287M, pol A1169T): 3 to 40 µM | IC50 (read-out: Drug susceptibility Aciclovir (ACV), isolate HPG035, HSV-1 pol S239L (716C>T), also pol S724N): 3 to 40 µM | IC50 (read-out: Drug susceptibility Aciclovir (ACV), isolate HPG037, HSV-1 TK L69M (205>A), also TK Y239H): 3 to 40 µM | IC50 (read-out: Drug susceptibility Aciclovir (ACV), isolate HPG037, HSV-1 TK R256W (766C>T)): 3 to 40 µM | IC50 (read-out: Drug susceptibility Aciclovir (ACV), isolate HPG037, HSV-1 TK Y239H (715T>C)): 3 to 40 µM | IC50 (read-out: Drug susceptibility Aciclovir (ACV), isolate HPG039, HSV-1 TK 85* or H58fs (169delC, 170delC, 171delC, or 172delC)): 3 to 40 µM | IC50 (read-out: Drug susceptibility Aciclovir (ACV), isolate HPG040, HSV-1 pol S911N (2732G>A), also TK deletion (C) nt 896-900, pol A1169T): > 40 µM | IC50 (read-out: Drug susceptibility Aciclovir (ACV), isolate HPG041, HSV-1 pol S911N (2732G>A), also pol A1169T): < 3 µM | IC50 (read-out: Drug susceptibility Aciclovir (ACV), isolate HPG042, HSV-1 TK frameshift (881delC to 885delC)): 3 to 40 µM | IC50 (read-out: Drug susceptibility Aciclovir (ACV), isolate HPG042, HSV-1 pol A972V (2915C>T), also TK deletion (C) nt 881-885, pol A1169T): > 40 µM | IC50 (read-out: Drug susceptibility Aciclovir (ACV), isolate HPG042, HSV-1 pol G22R (64G>A), also TK deletion (C) nt 881-885, pol A1169T): > 40 µM | IC50 (read-out: Drug susceptibility Aciclovir (ACV), isolate HPG043, HSV-1 TK 183* (437_438insA)): 3 to 40 µM | IC50 (read-out: Drug susceptibility Aciclovir (ACV), isolate HPG045, HSV-1 TK L49R (146T>G)): 3 to 40 µM | IC50 (read-out: Drug susceptibility Aciclovir (ACV), isolate HPG045, HSV-1 pol L419I (1255C>A), also TK L49R, pol A1169T): 3 to 40 µM | IC50 (read-out: Drug susceptibility Aciclovir (ACV), isolate HPG046, HSV-1 TK I166N (497T>A)): 3 to 40 µM | IC50 (read-out: Drug susceptibility Aciclovir (ACV), isolate HPG047, HSV-1 pol E680 (2039A>C), also TK deletion (C) nt 548-553, pol A1169T): 3 to 40 µM | IC50 (read-out: Drug susceptibility Aciclovir (ACV), isolate HPG050, HSV-1 TK Q34* (100C>T)): > 40 µM | IC50 (read-out: Drug susceptibility Aciclovir (ACV), isolate HPG051, HSV-1 pol D83A (248A>C), also TK R176stop): 3 to 40 µM | IC50 (read-out: Drug susceptibility Aciclovir (ACV), isolate HPG052, HSV-1 TK Q34* (100C>T)): 3 to 40 µM | IC50 (read-out: Drug susceptibility Aciclovir (ACV), isolate HPG053, HSV-1 pol L802R + A834S (2405T>G, 2500G>T), also TK R176W): > 40 µM | IC50 (read-out: Drug susceptibility Aciclovir (ACV), isolate HPG053, HSV-1 pol S911N (2732G>A), also TK R176W, pol A1169T): > 40 µM | IC50 (read-out: Drug susceptibility Aciclovir (ACV), isolate HPG054, HSV-1 pol E992K (2974G>A), also TK insert (G) nt 430-436, pol A1169T): 3 to 40 µM | IC50 (read-out: Drug susceptibility Aciclovir (ACV), isolate HPG055, HSV-1 TK V204G (611T>G), also pol A1169AT): 3 to 40 µM
